US20210330611A1, “THERAPY FOR NEUROLOGICAL DISEASES/DISORDERS” (priority 2020, published 2021)
“And” between values parts separate entries of the source, which are not always exact repeats. Equal entries are not always repeated. Structures can show the parent of a compound that is named as a salt. Where two headings read alike, the source gives them in different places.

Experiments:
[1] = system: fibrin-induced microglia activation; experiment: Image-based assay of fibrin-induced microglia activation (HTS and dose response); type: cell-based, rat; details: for Fibrin % inhibition: 10 μM; for inhibition at 10 µM: Rattus norvegicus, Microglia, fibrin stimulation, read-out: Fibrin % inhibition
[2] = system: LPS-induced microglia activation; experiment: Image-based assay of LPS-induced microglia activation (HTS and dose response); type: cell-based, rat; details: for inhibition at 10 µM: Rattus norvegicus, Microglia, read-out: LPS % inhibition
[3] = system: fibrin- and LPS-induced microglia activation; experiment: cells; type: cell-based, rat
primary rat microglia [4] = experiment: Cell toxicity (dead cells, size <150 μm2) in LPS assay
primary rat microglia [5] = experiment: Cell toxicity (dead cells, size <150 μm2) in coated fibrin (cFib) assay;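 for Fibrin % cell toxicity: share of dead cells sized under 150 µm2 at 10 µM in fibrin-stimulated microglia HTS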
[6] = primary HTS, 10 μM, LPS-stimulated primary microglia
[7] = primary HTS, 10 μM, LPS assay, dead cells size <150 μm2
[8] = primary HTS, 10 μM, fibrin assay, dead cells size <150 μm2
[9] = primary microglia HTS, 10 μM, LPS-stimulated, cell size >800 μm^2 as marker of activation
[10] = HTS of 1907 compounds, quadrant by fibrin and LPS inhibition
[11] = primary microglia HTS, 10 μM, LPS assay, cell size <150 μm^2 as marker of toxicity
[12] = primary microglia HTS, 10 μM, fibrin assay, cell size <150 μm^2 as marker of toxicity
[13] = primary microglia HTS, increased cell size (>800 μm^2) as marker of activation
[14] = quadrant by fibrin and LPS inhibition in HTS of 1907 compounds
[15] = primary microglia HTS, LPS stimulation, decreased size (<150 μm^2) as marker of toxicity
[16] = primary microglia HTS, fibrin stimulation, decreased size (<150 μm^2) as marker of toxicity
[17] = 48 h, primary microglia HTS, LPS stimulation, activation = cell size >800 μm2
[18] = primary microglia HTS, LPS stimulation, toxicity = cell size <150 μm2
[19] = primary microglia HTS, fibrin stimulation, toxicity = cell size <150 μm2
[20] = 48 h, primary microglia HTS, LPS stimulation, increased cell size (>800 μm^2) as marker of activation

C[N+](C)(C)CC(O)CC(=O)O.[Cl-] (centres unmarked)
Fibrin % inhibition ([1]; primary HTS, fibrin-stimulated primary microglia): −23%
LPS % inhibition [2, 6]: 1%
Quadrant (FIG. 5b) ([3]; primary HTS, 10 μM): Q4
LPS % cell toxicity (primary rat microglia [4]; [7]): 0%
Fibrin % cell toxicity (primary rat microglia [5]; [8]): 1%

Cc1scc2c1N(C(=O)CN1CCN(C)CC1)c1ccccc1NC2=O
Fibrin % inhibition ([1]; primary microglia HTS, fibrin-stimulated, cell size >800 μm^2 as marker of activation): 3%
LPS % inhibition [2, 9]: 14%
Quadrant (FIG. 5b) [3, 10]: Q4
LPS % cell toxicity (primary rat microglia [4]; [11]): 0%
Fibrin % cell toxicity (primary rat microglia [5]; [12]): 1%

CCCC1O[C@@H]2C[C@H]3[C@@H]4CCC5=CC(=O)C=C[C@]5(C)[C@H]4[C@@H](O)C[C@]3(C)[C@]2(C(=O)CO)O1 (some centres unmarked) [Budesonide]
inhibition at 10 µM [1, 13]: 110%
Quadrant (FIG. 5b) [3, 14]: Q2
LPS % cell toxicity (primary rat microglia [4]; [15]): 5% and 1%
Fibrin % cell toxicity (primary rat microglia [5]; [16]): 3% and 6%

CC(C)(O/N=C(\C(=O)N[C@@H]1C(=O)N2C(C(=O)[O-])=C(C[n+]3ccccc3)CS[C@H]12)c1csc(N)n1)C(=O)O [Ceftazidime]
inhibition at 10 µM [2, 6]: 17%
LPS % inhibition [2, 6]: 30%
Quadrant (FIG. 5b) ([3]; primary HTS, 10 μM): Q4
LPS % cell toxicity (primary rat microglia [4]; [7]): 1%
Fibrin % cell toxicity (primary rat microglia [5]; [8]): 1%

CN(C)CCCC1(c2ccc(F)cc2)OCc2cc(C#N)ccc21 (centres unmarked) [Citalopram]
inhibition at 10 µM [2, 6]: 10%
LPS % inhibition [2, 6]: 8%
Quadrant (FIG. 5b) ([3]; primary HTS, 10 μM): Q4
LPS % cell toxicity (primary rat microglia [4]; [7]): 0%
Fibrin % cell toxicity (primary rat microglia [5]; [8]): 0%

CC(=O)[C@@]1(O)CC[C@H]2[C@@H]3C[C@H](C)C4=CC(=O)C=C[C@]4(C)[C@@]3(F)[C@@H](O)C[C@@]21C [Fluorometholone]
inhibition at 10 µM [1, 13]: 104%
Quadrant (FIG. 5b) [3, 14]: Q2
LPS % cell toxicity (primary rat microglia [4]; [15]): 1% and 7%
Fibrin % cell toxicity (primary rat microglia [5]; [16]): 6% and 3%

CCC(=O)O[C@]1(C(=O)SCF)[C@H](C)C[C@H]2[C@@H]3C[C@H](F)C4=CC(=O)C=C[C@]4(C)[C@@]3(F)[C@@H](O)C[C@@]21C [Fluticasone Propionate]
inhibition at 10 µM [1, 13]: 108%
Quadrant (FIG. 5b) [3, 14]: Q2
LPS % cell toxicity (primary rat microglia [4]; [15]): 3% and 4%
Fibrin % cell toxicity (primary rat microglia [5]; [16]): 7% and 5%

Nc1nc2ncc(CNc3ccc(C(=O)N[C@@H](CCC(=O)O)C(=O)O)cc3)nc2c(=O)[nH]1 [Folic Acid]
inhibition at 10 µM [2, 17]: 22%
Quadrant (FIG. 5b) [3, 14]: Q4
LPS % cell toxicity (primary rat microglia [4]; [18]): 0% and 1%
Fibrin % cell toxicity (primary rat microglia [5]; [19]): 1%

NCC1(CC(=O)O)CCCCC1 [Gabapentin]
inhibition at 10 µM [2, 17]: 19%
Quadrant (FIG. 5b) [3, 14]: Q4
LPS % cell toxicity (primary rat microglia [4]; [18]): 1% and 0%
Fibrin % cell toxicity (primary rat microglia [5]; [19]): 1%

OC[C@H]1O[C@@H](n2cnc3c(O)ncnc32)[C@H](O)[C@@H]1O [Inosine]
inhibition at 10 µM ([1]; primary microglia HTS, activation = cell size >800 μm2): -31%
inhibition at 10 µM [1, 13]: 111%
inhibition at 10 µM [2, 17]: -11%
inhibition at 10 µM [2, 20]: 115%
LPS % cell toxicity (primary rat microglia [4]; [18]): 0%
LPS % cell toxicity (primary rat microglia [4]; [15]): 2%
Fibrin % cell toxicity (primary rat microglia [5]; [19]): 1%
Fibrin % cell toxicity (primary rat microglia [5]; [16]): 7%

CC[C@H](C)[C@H]1O[C@]2(CC[C@@H]1C)C[C@@H]1C[C@@H](C/C=C(\C)[C@@H](O[C@H]3C[C@H](OC)[C@@H](O[C@H]4C[C@H](OC)[C@@H](O)[C@H](C)O4)[C@H](C)O3)[C@@H](C)/C=C/C=C3\CO[C@@H]4[C@H](O)C(C)=C[C@@H](C(=O)O1)[C@]34O)O2 [Ivermectin]
LPS % inhibition ([2]; primary microglia HTS, LPS stimulation, activation = cell size >800 μm2): 10% and 19%
Quadrant (FIG. 5b) [3, 14]: Q4
LPS % cell toxicity (primary rat microglia [4]; [18]): 0%
Fibrin % cell toxicity (primary rat microglia [5]; [19]): 1% and 0%

CNC[C@H](O)[C@@H](O)[C@H](O)[C@H](O)CO [Meglumine]
Quadrant (FIG. 5b) [3, 14]: Q4
LPS % cell toxicity (primary rat microglia [4]; [15]): 0% and 1%
Fibrin % cell toxicity (primary rat microglia [5]; [16]): 0% and 1%

C[C@@H](O)[C@H]1C(=O)N2C(C(=O)O)=C(S[C@@H]3CN[C@H](C(=O)N(C)C)C3)[C@H](C)[C@H]12 [Meropenem]
Quadrant (FIG. 5b) [3, 14]: Q4
LPS % cell toxicity (primary rat microglia [4]; [15]): 0%
Fibrin % cell toxicity (primary rat microglia [5]; [16]): 1%

C[C@H](N)[C@H](O)c1cccc(O)c1 [Metaraminol]
Quadrant (FIG. 5b) [3, 14]: Q4
LPS % cell toxicity (primary rat microglia [4]; [15]): 1%
Fibrin % cell toxicity (primary rat microglia [5]; [16]): 0% and 1%

CC(=O)/N=c1/sc(S(N)(=O)=O)nn1C [Methazolamide]
inhibition at 10 µM [2, 20]: 10%
Quadrant (FIG. 5b) [3, 14]: Q4
LPS % cell toxicity (primary rat microglia [4]; [15]): 0%
Fibrin % cell toxicity (primary rat microglia [5]; [16]): 1%

C[N+]1(C)[C@@H]2C[C@@H](OC(=O)[C@H](CO)c3ccccc3)C[C@H]1[C@@H]1O[C@@H]12 [Methscopolamine Bromide]
Quadrant (FIG. 5b) [3, 14]: Q4
LPS % cell toxicity (primary rat microglia [4]; [15]): 0%
Fibrin % cell toxicity (primary rat microglia [5]; [16]): 1%

CC[C@@H](CO)NC(=O)[C@@H]1C=C2c3cccc4c3c(cn4C)C[C@H]2N(C)C1 [Methysergide Maleate]
Quadrant (FIG. 5b) [3, 14]: Q4
LPS % cell toxicity (primary rat microglia [4]; [15]): 0%
Fibrin % cell toxicity (primary rat microglia [5]; [16]): 0% and 1%

CC(C)[C@H]1CC[C@H](C(=O)N[C@H](Cc2ccccc2)C(=O)O)CC1 [Nateglinide]
Quadrant (FIG. 5b) [3, 14]: Q4
LPS % cell toxicity (primary rat microglia [4]; [15]): 1% and 0%
Fibrin % cell toxicity (primary rat microglia [5]; [16]): 1%

CN1Cc2c(N)cccc2C(c2ccccc2)C1 (centres unmarked) [Nomifensine]
Quadrant (FIG. 5b) [3, 14]: Q4
LPS % cell toxicity (primary rat microglia [4]; [15]): 0%
Fibrin % cell toxicity (primary rat microglia [5]; [16]): 0%

NC[C@H](O)c1ccc(O)c(O)c1 [Norepinephrine]
Quadrant (FIG. 5b) [3, 14]: Q4
LPS % cell toxicity (primary rat microglia [4]; [15]): 0%
Fibrin % cell toxicity (primary rat microglia [5]; [16]): 1%

C[C@@H]1[C@H](O)[C@@H](C)/C=C/C=C/CC/C=C/C=C/C=C/C=C/C(O[C@H]2O[C@H](C)[C@@H](O)[C@H](N)[C@@H]2O)CC2O[C@](O)(CC(O)C(O)CCC(O)CC(O)CC(O)CC(=O)O[C@H]1C)CC(O)C2C(=O)O (some centres unmarked) [Nystatin]
Quadrant (FIG. 5b) [3, 14]: Q4
LPS % cell toxicity (primary rat microglia [4]; [15]): 1%
Fibrin % cell toxicity (primary rat microglia [5]; [16]): 0% and 1%

CCN1CCCC1CNC(=O)c1cc(S(N)(=O)=O)ccc1OC (centres unmarked) [Sulpiride]
inhibition at 10 µM [2, 9]: 11%
LPS % inhibition [2, 9]: 7%
Quadrant (FIG. 5b) [3, 10]: Q4
LPS % cell toxicity (primary rat microglia [4]; [11]): 0%
Fibrin % cell toxicity (primary rat microglia [5]; [12]): 1%

C[C@]1(Cn2ccnn2)[C@H](C(=O)O)N2C(=O)C[C@H]2S1(=O)=O [Tazobactam]
Quadrant (FIG. 5b) [3, 10]: Q4
LPS % cell toxicity (primary rat microglia [4]; [11]): 0%
Fibrin % cell toxicity (primary rat microglia [5]; [12]): 1% and 0%

CC(C)N1CCN(c2ccc(OCC3COC(Cn4cncn4)(c4ccc(Cl)cc4Cl)O3)cc2)CC1 (centres unmarked) [Terconazole]
Quadrant (FIG. 5b) [3, 10]: Q4
LPS % cell toxicity (primary rat microglia [4]; [11]): 0%
Fibrin % cell toxicity (primary rat microglia [5]; [12]): 1%

COc1cccc(C2(O)CCCCC2CN(C)C)c1 (centres unmarked) [Tramadol]
Quadrant (FIG. 5b) [3, 10]: Q4
LPS % cell toxicity (primary rat microglia [4]; [11]): 0%
Fibrin % cell toxicity (primary rat microglia [5]; [12]): 1%

CCC(Cc1c(I)cc(I)c(N)c1I)C(=O)O (centres unmarked) [lopanic Acid]
IC50 ([2]; LPS-induced microglia activation, dose response, read-out: LPS IC50 (uM) (Suppl. Table 7)): > 20 µM
Quadrant (FIG. 5b) [3, 10]: Q3
Cherry-picked Hit (Suppl. Table 7) ([3]; hit classification in microglia HTS): HIT (Hits were defined as molecules that exhibited greater than 50% inhibition of either fibrin or LPS activation)
IC50 (primary rat microglia [4]; read-out: Cell Toxicity IC50 (uM) [LPS assay], LPS assay): > 20 µM
IC50 (primary rat microglia [5]; read-out: Cell Toxicity IC50 (uM) [cFib assay], cFib assay): > 20 µM

Benzalkonium Chloride
LPS % inhibition ([2]; primary microglia HTS, LPS stimulation, increased cell size (>800 μm^2) as marker of activation): 122%
Quadrant (FIG. 5b) [3, 14]: Q2
LPS % cell toxicity (primary rat microglia [4]; [15]): 31%
Fibrin % cell toxicity (primary rat microglia [5]; [16]): 71%

Carboplatin
LPS % inhibition [2, 6]: 4% and 7%
Quadrant (FIG. 5b) ([3]; primary HTS, 10 μM): Q4
LPS % cell toxicity (primary rat microglia [4]; [7]): 0%
Fibrin % cell toxicity (primary rat microglia [5]; [8]): 1%
